Assay results as given in patent US9078901B2, “Pharmacological modulation of telomere length in cancer cells for prevention and treatment of cancer” (priority 2007, dated 2015).
Entries after “also recorded” stand apart in the source; their conditions may differ.

Tests used:
HeLa cells [1] = experiment: Flow-FISH telomere length (PNA-FITC probe) and PI cell cycle analysis in treated telomerase positive HeLa cells; format: cell-based, human; conditions: for apoptosis (flow-FISH) / cell cycle (PI) / telomere length (flow-FISH): 10 days of treatment, ACV 3 μM, FIG. 1; for apoptosis (flow-FISH) / cell cycle (PI) / telomere length (flow-FISH) / apoptosis / cell cycle distribution / telomere length: GCV 1.5 μM, PCV 1.5 μM; for apoptosis / cell cycle distribution / telomere length: after 10 and 14 days of treatments, ACV 3.0 μM; for cell cycle distribution (PI): treated for 14 days
Procedure: (§1) Both telomerase positive (HeLa) telomerase negative (U-2 OS) cell lines were used. Appropriate assays were performed to detect and confirm telomerase/L1RT specific activity in these cells.
(§2) Telomere length in ACV, GCV and PCV treated and untreated cell lines was measured by flow cytometry with a telomere-specific peptide nucleic acid (PNA) probe^23,24. To determine cell cycle distribution, cells were stained with propidium iodide (PI)^23.
(§3) The U-2 OS (osteosarcoma) and HeLa (uterine cervix) cell lines used in this study were obtained from American Type Culture Collection (Rockville, Md.). Cells were cultured in D-MEM media supplemented with 10% fetal calf serum at 37° C. in a humidified atmosphere of 5% CO2. For treatment of the cells with ACV, the media was supplemented with 3 μM of acyclovir (acyclovir, TEVA Pharm. Ind. Ltd, Israel). For treatment of the cells with GCV, the media was supplemented with 1.5 μM of GCV (Cymevene, Hoffman-La Roche). For treatment of the cells with PCV, the media was supplemented with 1.5 μM of PCV (penciclovir, Merck & Co.).
(§4) For telomere length measurement by flow cytometry, cells were stained with telomere specific FITC conjugated (C3TA2)3 PNA (Applied Biosystems) probe and contrastained with 0.06 μg/ml PI as described by Rufer et al., 1998, Telomere length dynamics in human lymphocyte subpopulations were measured by flow cytometry, Nat. Biotechnol. 16, 743-747.

U-2 OS cells = experiment: Flow-FISH telomere length (PNA-FITC probe) and PI cell cycle analysis in treated telomerase negative U-2 OS cells; format: cell-based, human; conditions: for apoptosis (flow-FISH) / cell cycle (PI) / telomere length (flow-FISH): ACV 3 μM; for apoptosis (flow-FISH) / cell cycle (PI) / telomere length (flow-FISH) / apoptosis / cell cycle distribution / telomere length: GCV 1.5 μM, PCV 1.5 μM; for apoptosis / cell cycle distribution / telomere length: after 10 and 14 days of treatments, ACV 3.0 μM
Procedure: as §1, §2, §3, §4

HeLa cells [2] = experiment: Tumor growth progression assay, s.c. HeLa xenografts in nude mice; format: in vivo, nude (nu/nu) mice; conditions: 1×10^6 HeLa cells s.c., GCV 2 mg/ml in drinking water ad libitum from day zero
Description: Exemplary in vivo assays of anti-tumor efficacy of ACV, PCV and/or GCV using nude mice subcutaneous (s.c.) tumors grown from the human HeLa cancer cell line (i.e., xenografts bearing mice) as cancer models are described below. Human cancerous cells needed for in vivo assays may be prepared, for example, as follows: Telomerase positive HeLa human cell line and telomerase negative U-2 OS human cell line are obtained from public sources. Cells are maintained in D-MEM media supplemented with 10% foetal calf serum at 37° C. in a humidified atmosphere of 5% CO2. For in vivo assay, appropriate host, e.g., nude (nu/nu) mice of about 5-7 weeks old are obtained and maintained in pathogen-free conditions. Approximately, 1×10^6 HeLa cells (and/or U-2 OS cells) contained in 200 μl of serum-free media are delivered to all animals, briefly anaesthetized with Metofane, by subcutaneous (s.c.) injection in flank. Then the mice are divided into experimental group and control group. Appropriate concentrations of ACV, PCV and/or GCV are used for tumor growth progression or regression assays. In one embodiment, impairment of s.c. tumor growth or time to progression rather than decrease in size of an established tumor (regression) is assessed. […] Tumors are measured every 2-3 days. […] Tumor volume is calculated with formula 4/3πr^3, where r is the radius of the tumor.

| Compound | apoptosis (flow-FISH) (HeLa cells [1]) | cell cycle (PI) (HeLa cells [1]) | telomere length (flow-FISH) (HeLa cells [1]) | onset of changes in cell cycle distribution (HeLa cells [1]; ACV treatment) | apoptosis (HeLa cells [1]) | cell cycle distribution (HeLa cells [1]) | telomere length (HeLa cells [1]) | cell cycle distribution (PI) (HeLa cells [1]) | apoptosis (flow-FISH) (U-2 OS cells; 10 days of treatment, FIG. 2) | cell cycle (PI) (U-2 OS cells; 10 days of treatment, FIG. 2) | telomere length (flow-FISH) (U-2 OS cells; 10 days of treatment, FIG. 2) | cell cycle (PI) (U-2 OS cells; 14 days of treatment) | apoptosis (flow-FISH) (U-2 OS cells; 14 days of treatment, FIG. 3) | telomere length (flow-FISH) (U-2 OS cells; 14 days of treatment, FIG. 3) | onset of changes in cell cycle distribution (U-2 OS cells; ACV treatment) | apoptosis (U-2 OS cells) | cell cycle distribution (U-2 OS cells) | telomere length (U-2 OS cells) | s.c. tumor development (HeLa cells [2]) |
| --- | --- | --- | --- | --- | --- | --- | --- | --- | --- | --- | --- | --- | --- | --- | --- | --- | --- | --- | --- |
| Nc1nc2c(ncn2COCCO)c(=O)[nH]1 [ACV, 9-[2(hydromethoxy)-methyl]guanine] | massive apoptosis | changes in cell cycle | decrease in telomere length | could be detected after only few days | massive apoptosis | G2 arrest | telomere shortening | G2 arrest of cell cycle | massive apoptosis | changes in cell cycle | decrease in telomere length | changes in cell cycle; also recorded: G2 arrest of cell cycle | massive apoptosis | decrease in telomere length | could be detected after only few days | massive apoptosis | G2 arrest | telomere shortening | – |
| Nc1nc(O)c2ncn(COC(CO)CO)c2n1 [GCV] | massive apoptosis | changes in cell cycle | decrease in telomere length | – | massive apoptosis | G2 arrest | telomere shortening | G2 arrest of cell cycle | massive apoptosis | changes in cell cycle | decrease in telomere length | changes in cell cycle; also recorded: G2 arrest of cell cycle | massive apoptosis | decrease in telomere length | – | massive apoptosis | G2 arrest | telomere shortening | remain tumor free |
| Nc1nc2c(ncn2CCC(CO)CO)c(=O)[nH]1 [PCV] | massive apoptosis | changes in cell cycle | decrease in telomere length | – | massive apoptosis | G2 arrest | telomere shortening | G2 arrest of cell cycle | massive apoptosis | changes in cell cycle | decrease in telomere length | changes in cell cycle; also recorded: G2 arrest of cell cycle | massive apoptosis | decrease in telomere length | – | massive apoptosis | G2 arrest | telomere shortening | – |
